# According to patent US12655160B2, “KRAS G12D inhibitors” (Mirati Therapeutics, Inc., priority 2020, dated 2026):
# Structures can show the parent of a compound that is named as a salt.
# Target: KRas G12D (Homo sapiens, UniProt P01116, G12D)
# Experiment: KRas G12D Binding Assay (TR-FRET displacement of labeled tracer)
# Design: corresponding to amino acids 1:169, produced at Array BioPharma Inc; biotin (biotinylated)
# Conditions: TR-FRET displacement of Cy5 labelled tracer, Biotinylated GDP-loaded KRAS G12D (amino acids 1:169), 60 minute incubation at 22° C.
# Procedure: This Example illustrates that exemplary compounds of the present invention bind to KRas G12D and are capable of displacing a labeled tracer ligand occupying the KRas G12D binding site. The ability of a compound to bind to KRAS G12D was measured using a TR-FRET displacement assay. Biotinylated GDP-loaded recombinant human KRAS G12D (corresponding to amino acids 1:169, produced at Array BioPharma Inc.) was incubated with a custom-made Cy5 labelled tracer, europium labelled streptavidin and compound (2% DMSO final) in buffer (50 mM HEPES [pH 7.5], 5 mM MgCl2, 0.005% Tween-20 & 1 mM DTT). After a 60 minute incubation at 22° C., the reaction was measured using a PerkinElmer EnVision multimode plate reader via TR-FRET dual wavelength detection, and the percent of control (POC) calculated using a ratiometric emission factor. […] The POC values were fit to a 4-parameter logistic curve and the IC50 value was determined as the concentration where the curve crosses 50 POC.
# Chain of KRas G12D (P01116 1-169 isoform P01116-2 G12D): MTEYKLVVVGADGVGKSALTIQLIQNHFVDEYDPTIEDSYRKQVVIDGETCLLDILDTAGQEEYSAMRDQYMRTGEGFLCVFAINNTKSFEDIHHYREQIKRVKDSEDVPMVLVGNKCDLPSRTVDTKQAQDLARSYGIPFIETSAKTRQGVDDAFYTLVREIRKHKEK
row,Compound,IC50 [nM]
1,"CN(C)C(C)(C)CNc1nc(OC[C@]23CCCN2C[C@@H](F)C3)nc2c(F)c(-c3cc(O)cc4ccccc34)ncc12 [Example 42, 4-(4-((2-(dimethylamino)-2-methylpropyl)amino)-8-fluoro-2-(((2S,7aR)-2-fluorotetrahydro-1H-pyrrolizin-7a(5H)-yl)methoxy)pyrido[4,3-d]pyrimidin-7-yl)naphthalen-2-ol bis(2,2,2-trifluoroacetate)]",211
2,"CN1CCC[C@H]1COc1nc(NCC2(N(C)C)CCC2)c2cnc(-c3cc(O)cc4ccccc34)c(F)c2n1 [Example 11, (S)-4-(4-(((1-(dimethylamino)cyclobutyl)methyl)amino)-8-fluoro-2-((1-methylpyrrolidin-2-yl)methoxy)pyrido[4,3-d]pyrimidin-7-yl)naphthalen-2-ol bis(2,2,2-trifluoroacetate)]",98
3,"CCc1c(F)ccc2cc(O)cc(-c3ncc4c(NCC5(N(C)C)CCC5)nc(OC[C@@]56CCCN5C[C@H](F)C6)nc4c3F)c12 [Example 57, 4-(4-(((1-(dimethylamino)cyclobutyl)methyl)amino)-8-fluoro-2-(((2R,7aS)-2-fluorohexahydro-1H-pyrrolizin-7a-yl)methoxy)pyrido[4,3-d]pyrimidin-7-yl)-5-ethyl-6-fluoronaphthalen-2-ol]",1.1
4,"Oc1cc(-c2ncc3c(NC[C@]45C[C@H]4CCN5)nc(OC[C@@]45CCCN4C[C@H](F)C5)nc3c2F)c2ccccc2c1 [Example 40, 4-(4-((((1S,5R)-2-azabicyclo[3.1.0]hexan-1-yl)methyl)amino)-8-fluoro-2-(((2R,7aS)-2-fluorotetrahydro-1H-pyrrolizin-7a(5H)-yl)methoxy)pyrido[4,3-d]pyrimidin-7-yl)naphthalen-2-ol bis(2,2,2-trifluoroacetate)]",5150
5,"Oc1cc(-c2ncc3c(NCC4(N5CCOCC5)CCC4)nc(OC[C@@]45CCCN4C[C@H](F)C5)nc3c2F)c2ccccc2c1 [Example 4, 4-(8-fluoro-2-(((2R,7aS)-2-fluorotetrahydro-1H-pyrrolizin-7a(5H)-yl)methoxy)-4-(((1-morpholinocyclobutyl)methyl)amino)pyrido[4,3-d]pyrimidin-7-yl)naphthalen-2-ol]",958
6,"CC(C)c1ccccc1-c1ncc2c(NCC3(N(C)C)CCC3)nc(OC[C@@]34CCCN3C[C@H](F)C4)nc2c1F [Example 10, N-((1-(dimethylamino)cyclobutyl)methyl)-8-fluoro-2-(((2R,7aS)-2-fluorotetrahydro-1H-pyrrolizin-7a(5H)-yl)methoxy)-7-(2-isopropylphenyl)pyrido[4,3-d]pyrimidin-4-amine bis(2,2,2-trifluoroacetate)]",3720
7,"CCc1cccc2cc(O)cc(-c3ncc4c(N(C)CC5(N(C)C)CCC5)nc(OC[C@@]56CCCN5C[C@H](F)C6)nc4c3F)c12 [Example 37, 4-(4-(((1-(dimethylamino)cyclobutyl)methyl)(methyl)amino)-8-fluoro-2-(((2R,7aS)-2-fluorotetrahydro-1H-pyrrolizin-7a(5H)-yl)methoxy)pyrido[4,3-d]pyrimidin-7-yl)-5-ethylnaphthalen-2-ol dihydrochloride]",26.1
8,CN(CC1(N(C)C)CCC1)c1nc(OC[C@@]23CCCN2C[C@H](F)C3)nc2c(F)c(-c3cc(O)cc4ccccc34)ncc12 [Example 28],609
9,CN1CCC[C@@H]1COc1nc(NCC2(N(C)C)CCC2)c2cnc(-c3cc(O)cc4ccccc34)c(F)c2n1 [Example 32],381
10,"CN1CCC[C@H]1COc1nc(NC2C3CNCC32)c2cnc(-c3cc(O)cc4ccccc34)c(F)c2n1 (stereo partly drawn) [Example 5, 4-(4-((3-azabicyclo[3.1.0]hexan-6-yl)amino)-8-fluoro-2-(((S)-1-methylpyrrolidin-2-yl)methoxy)pyrido[4,3-d]pyrimidin-7-yl)naphthalen-2-ol bis(2,2,2-trifluoroacetate)]",2260
11,"CC(C)c1c(Cl)cccc1-c1ncc2c(NCC3(N(C)C)CCC3)nc(OC[C@@]34CCCN3C[C@H](F)C4)nc2c1F [Example 48, 7-(3-chloro-2-isopropylphenyl)-N-((1-(dimethylamino)cyclobutyl)methyl)-8-fluoro-2-(((2R,7aS)-2-fluorotetrahydro-1H-pyrrolizin-7a(5H)-yl)methoxy)pyrido[4,3-d]pyrimidin-4-amine]",1080
12,"Cc1c(Cl)cc2[nH]ncc2c1-c1ncc2c(NCC3(N(C)C)CCC3)nc(OC[C@@]34CCCN3C[C@H](F)C4)nc2c1F [Example 13, 7-(6-chloro-5-methyl-1H-indazol-4-yl)-N-((1-(dimethylamino)cyclobutyl)methyl)-8-fluoro-2-(((2R,7aS)-2-fluorotetrahydro-1H-pyrrolizin-7a(5H)-yl)methoxy)pyrido[4,3-d]pyrimidin-4-amine bis(2,2,2-trifluoroacetate)]",165

# The remaining lines, values ahead:
row,IC50 [nM],Compound
1,1580,CN(C)C1(CNc2nc(OC[C@@]34CCCN3C[C@H](F)C4)nc3c(F)c(-c4cc(O)cc5ccccc45)ncc23)CCCCC1 [Example 30]
2,1640,"CC(C)c1cccc2cccc(-c3ncc4c(NCC5(N(C)C)CCC5)nc(OCC56CCCN5C[C@H](F)C6)nc4c3F)c12 (mixture of isomers) [Example 25, N-((1-(dimethylamino)cyclobutyl)methyl)-8-fluoro-2-(((2S,7aR)-2-fluorotetrahydro-1H-pyrrolizin-7a(5H)-yl)methoxy)-7-(8-isopropylnaphthalen-1-yl)pyrido[4,3-d]pyrimidin-4-amine]"
3,938,"CN(C)C(C)(C)CNc1nc(OCC23CCCN2CCC3)nc2c(F)c(-c3cccc4cccc(Cl)c34)ncc12 [Example 55, N^1-(7-(8-chloronaphthalen-1-yl)-8-fluoro-2-((hexahydro-1H-pyrrolizin-7a-yl)methoxy)pyrido[4,3-d]pyrimidin-4-yl)-N^2,N^2,2-trimethylpropane-1,2-diamine]"
4,583,"CN(C)C1(CNc2nc(OC[C@@]34CCCN3C[C@H](F)C4)nc3c(F)c(-c4cccc5cccc(Cl)c45)ncc23)CCC1 [Example 23, 7-(8-chloronaphthalen-1-yl)-N-((1-(dimethylamino)cyclobutyl)methyl)-8-fluoro-2-(((2R,7aS)-2-fluorotetrahydro-1H-pyrrolizin-7a(5H)-yl)methoxy)pyrido[4,3-d]pyrimidin-4-amine]"
5,232,"CN(C)C1(CNc2nc(OC[C@]34CCCN3[C@@H](COC(=O)N3CCCC3)CC4)nc3c(F)c(-c4cccc5cccc(Cl)c45)ncc23)CCC1 [Example 49, ((3R,7aR)-7a-(((7-(8-chloronaphthalen-1-yl)-4-(((1-(dimethylamino)cyclobutyl)methyl)amino)-8-fluoropyrido[4,3-d]pyrimidin-2-yl)oxy)methyl)hexahydro-1H-pyrrolizin-3-yl)methyl pyrrolidine-1-carboxylate]"
6,344,"CN(C)C1(CNc2nc(OCC34CCCN3C[C@H](F)C4)nc3c(F)c(-c4cccc5cccc(C6CC6)c45)ncc23)CCC1 (mixture of isomers) [Example 26, 7-(8-cyclopropylnaphthalen-1-yl)-N-((1-(dimethylamino)cyclobutyl)methyl)-8-fluoro-2-(((2S,7aR)-2-fluorotetrahydro-1H-pyrrolizin-7a(5H)-yl)methoxy)pyrido[4,3-d]pyrimidin-4-amine]"
7,7160,"CN(C)C1(CNc2nc(OCC34CCCN3CCC4)nc3c(F)c(-c4cccc5cccc(F)c45)ncc23)CCOCC1 [Example 53, N-((4-(dimethylamino)tetrahydro-2H-pyran-4-yl)methyl)-8-fluoro-7-(8-fluoronaphthalen-1-yl)-2-((hexahydro-1H-pyrrolizin-7a-yl)methoxy)pyrido[4,3-d]pyrimidin-4-amine]"
8,1320,"CN(C)C1(CNc2nc(OC[C@@]34CCCN3C[C@H](F)C4)nc3c(F)c(-c4cccc5cccc(F)c45)ncc23)CCC1 [Example 22, N-((1-(dimethylamino)cyclobutyl)methyl)-8-fluoro-7-(8-fluoronaphthalen-1-yl)-2-(((2R,7aS)-2-fluorotetrahydro-1H-pyrrolizin-7a(5H)-yl)methoxy)pyrido[4,3-d]pyrimidin-4-amine]"
9,306,"CN(C)C1(CNc2nc(OCC34CCCN3CCC4)nc3c(F)c(-c4cccc5cccc(F)c45)ncc23)CCC1 [Example 14, N-((1-(dimethylamino)cyclobutyl)methyl)-8-fluoro-7-(8-fluoronaphthalen-1-yl)-2-((hexahydro-1H-pyrrolizin-7a-yl)methoxy)pyrido[4,3-d]pyrimidin-4-amine]"
10,1030,"CNC1(CNc2nc(OCC34CCCN3CCC4)nc3c(F)c(-c4cccc5cccc(F)c45)ncc23)CCC1 [Example 59, 8-fluoro-7-(8-fluoronaphthalen-1-yl)-2-((hexahydro-1H-pyrrolizin-7a-yl)methoxy)-N-((1-(methylamino)cyclobutyl)methyl)pyrido[4,3-d]pyrimidin-4-amine]"
11,146,"CN(C)C1(CNc2nc(OCC34CCCN3CCC4)nc3c(F)c(-c4cccc(Cl)c4C4CC4)ncc23)CCC1 [Example 16, 7-(3-chloro-2-cyclopropylphenyl)-N-((1-(dimethylamino)cyclobutyl)methyl)-8-fluoro-2-((tetrahydro-1H-pyrrolizin-7a(5H)-yl)methoxy)pyrido[4,3-d]pyrimidin-4-amine]"
